Literature values as cited in patent publication US20100047451A1, “ACTINIC-RADIATION CURABLE INK COMPOSITION, INK SET, INK JET PRINTING APPARATUS, AND INK JET RECORDING METHOD USING ACTINIC-RADIATION CURABLE INK COMPOSITION” (SEIKO EPSON CORPORATION, priority 2008, published 2010).

details: primary irritation index

Molecule | PII
C=C(C)C(=O)OCCCCCCOC(=O)C(=C)C [1,6-Hexanediol dimethacrylate] | 0.5
C=CC(=O)OCCCCCCCCCOC(=O)C=C [1,9-Nonanediol diacrylate] | 2.0
C=C(C)C(=O)OCC(O)COC(=O)C(=C)C [2-Hydroxy-1,3-dimethacryloxypropane] | 0.6
C=CC(=O)OCC1COC(C)(CC)O1 (stereo not drawn) [(2-Methyl-2-ethyl-1,3-dioxolan-4-yl)methyl acrylate] | 1.3
C=CC(=O)OCC1COC(C)(CC(C)C)O1 (stereo not drawn) [(2-Methyl-2-isobutyl-1,3-dioxolan-4-yl)methyl acrylate] | 1.0
C=CC(=O)N1CCOCC1 [Acryloylmorpholine] | 0.5
C=C(C)C(=O)OCCOCCOC(=O)C(=C)C [Diethylene glycol dimethacrylate] | 0.5
C=C(C)C(=O)OCCOC(=O)C(=C)C [Ethylene glycol dimethacrylate] | 0.6
C=CC(=O)O[C@@H]1C[C@H]2CC[C@]1(C)C2(C)C [Isobornyl acrylate] | 0.6
C=CC(=O)OCCOCCOC [Methoxy diethylene glycol monoacrylate] | 0.7
C=C(C)C(=O)OCC(C)(C)COC(=O)C(=C)C [Neopentyl glycol dimethacrylate] | 0.0
C=CC(=O)OCCOc1ccccc1 [Phenoxyethyl acrylate] | 1.7
C=C(C)C(=O)OCC(CC)(COC(=O)C(=C)C)COC(=O)C(=C)C [Trimethylolpropane trimethacrylate] | 0.8
C=CC(=O)OCC(C)OCC(C)OCC(C)OC(=O)C=C (stereo not drawn) [Tripropylene glycol diacrylate] | 1.6
Glycerol PO-modified triacrylate | 0.8
Polyethylene glycol 200 dimethacrylate | 0.5
Polyethylene glycol #400 diacrylate | 0.4
Trimethylolpropane PO-modified triacrylate | 0.1
Trimethylolpropane-modified triacrylate | 1.5

details: measurements at 25° C.

Viscosity [mPa · s] | Molecule
5.1 | C=CC(=O)OCC1COC(C)(CC)O1 (stereo not drawn) [(2-Methyl-2-ethyl-1,3-dioxolan-4-yl)methyl acrylate]
14 | Polyethylene glycol 200 dimethacrylate
